Target: T1, SyrB2 halogenase (Pseudomonas syringae pv. syringae, UniProt Q9RBY6)
T1 construct: His-tag (inferred from the pET-28a(+) vector and Ni HisTrap purification); made in house; host or cells: E. coli BL21-Gold (DE3)
Test: Fluorination assay of Thr by SyrB2 halogenase with ligator (LC-MS/MS)
Assay type: biochemical
Description: In an anaerobic glovebag (98% N2/2% H2, Coy Laboratories), all plasticware, solutions, and solids were allowed to equilibrate overnight before use. Stock solutions of RXN buffer (20 mM HEPES, pH=7.5), 20G (100 mM in RXN buffer, pH=7.5), NOG (150 mM in RXN buffer, pH=7.5), and Milli-Q water were degassed using a vacuum manifold on a Schlenk Line apparatus. At least three cycles of vacuum and subsequent equilibration with Argon gas were performed before transfer to the glovebag. Halide Salts (NaCl, NaF) and ferrous ammonium sulfate (FAS) were transferred to the glovebag the day before use.
Stock SyrB1-PPT-Thr and SyrB2 were thawed on ice-water and centrifuged to remove any possible precipitate. Stock proteins were diluted in RXN buffer and transferred to individual ReactiVials (Thermo) sealed with septa on a pre-cooled ReactiBlock (Thermo). Protein was deoxygenated by piercing the ReactiVials with needles and purging the headspace with a continuous flow of Argon gas for 1 hr while continuously stirring the protein solution on ice bath. Reactivials were sealed and transferred to the glovebag. While deoxygenating the protein, halide salts were dissolved in RXN buffer in the glovebag. To individual 1.7 mL tubes, RXN buffer, ligand (NOG or 2OG), and halide (NaCl or NaF) were added and cooled to 4° C. The ReactiVials containing the proteins were sealed and transferred to the glovebag. […]

T1 sequence (Q9RBY6 whole entry): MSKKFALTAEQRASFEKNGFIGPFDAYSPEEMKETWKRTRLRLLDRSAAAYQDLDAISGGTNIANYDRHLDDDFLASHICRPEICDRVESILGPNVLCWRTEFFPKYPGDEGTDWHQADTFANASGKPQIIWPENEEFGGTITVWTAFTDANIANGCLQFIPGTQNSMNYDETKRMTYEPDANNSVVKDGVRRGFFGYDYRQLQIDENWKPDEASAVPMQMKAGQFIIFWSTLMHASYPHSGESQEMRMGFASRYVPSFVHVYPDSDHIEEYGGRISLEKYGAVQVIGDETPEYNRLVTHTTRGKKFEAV

## O=C(O)CNC(=O)C(=O)O [NOG, N-oxalylglycine]
In some of the reaction conditions with ligator
  side products (hydroxylated substrates) observed: little to no side products
Ligator 1 mM, NaF 10 mM, LC-MS/MS (FIG. 3)
  fluorination of Thr amino acid by SyrB2 halogenase: enabling fluorination of Thr amino acid
